Test results: PubChem BioAssay (NCI)
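1) Cells in 96-well plates. 2) Compound, 48 h, 5 concentrations. 3) Linear interpolation between surrounding doses. 4) Unreached endpoint = highest concentration. TGI is the concentration that stops growth completely.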

Assays:
Assay in all cases: NCI tumour cell line growth inhibition, 48 h
[1] = test system: DLD-1 colon
[2] = test system: DMS 114 small cell lung
[3] = test system: HOP-18 NSCLC
[4] = test system: KM20L2 colon
[5] = test system: M19-MEL melanoma
[6] = test system: P388 leukemia
[7] = test system: P388/ADR leukemia
[8] = test system: SN12K1 renal
[9] = test system: XF 498 CNS
[10] = test system: LXFL 529 NSCLC
[11] = test system: RXF-631 renal

Compound: CC(=O)C(=Cc1cn(C)c(=O)n(C)c1=O)C(C)=O
- TGI [1]: 222 µM
- TGI [2]: 227 µM
- TGI [3]: 456 µM
- TGI [4]: 230 µM
- TGI [5]: 273 µM
- TGI [6]: 240 µM
- TGI [7]: 392 µM
- TGI [8]: 228 µM
- TGI [9]: 78.1 µM

Compound: NC(=O)CCC(N=c1c2ccccc2n(O)c2ccccc12)C(=O)O (centres undefined)
- TGI [1]: > 100 µM
- TGI [2]: > 100 µM
- TGI [3]: 98.4 µM
- TGI [4]: > 100 µM
- TGI [10]: > 100 µM
- TGI [5]: > 100 µM

Compound: Cc1ccccc1NC(=O)CSc1nnc(-c2ccc(N=Cc3ccc(Cl)cc3)cc2)o1
- TGI [2]: > 100 µM
- TGI [3]: > 100 µM
- TGI [4]: > 100 µM
- TGI [10]: > 100 µM
- TGI [5]: > 100 µM
- TGI [9]: > 100 µM

Compound: Clc1ccc2c(NCCCCCCNc3ccnc4cc(Cl)ccc34)ccnc2c1
- TGI [1]: 10.3 µM
- TGI [2]: 3.34 µM
- TGI [4]: 4.39 µM
- TGI [10]: 7.3 µM
- TGI [5]: 8.83 µM
- TGI [11]: 6.02 µM
- TGI [9]: 2.96 µM

Compound: CC1=C(CO)C(=O)OC(C(C)C2CCC3C4CC5OC56C(O)C(N5CC5)=CC(=O)C6(C)C4CCC23C)C1 (centres undefined)
- TGI [1]: 17.6 µM
- TGI [2]: 5.85 µM
- TGI [4]: 9.87 µM
- TGI [10]: 15.9 µM
- TGI [5]: 23.5 µM
- TGI [11]: 34.5 µM
- TGI [9]: 16.4 µM

Compound: CC(C)CCCC(C)[C@H]1CCC(C2C[C@@H](O)[C@@H]3CC(O)[C@@H](O)C[C@]3(CO)C2=O)[C@]1(C)CCO (some centres undefined)
- TGI [1]: > 100 µM
- TGI [2]: 39.7 µM
- TGI [3]: 47.7 µM
- TGI [4]: 38.5 µM
- TGI [5]: 39 µM
- TGI [6]: 49.5 µM
- TGI [7]: > 88.7 µM
- TGI [8]: 37.4 µM
- TGI [9]: > 59.6 µM
